# Structures can show the parent of a compound that is named as a salt.
# What was measured:
# [1] = Phase 1 clinical study, incidence of GI TEAEs after Maralixibat 10 mg in fed versus fasted state; format: in vivo, human; conditions: healthy participants
# Description: (§1) FIG. 2 is pie charts showing the proportion of healthy participants who experienced gastrointestinal (GI) treatment-emergent adverse events (AEs) following ASBTI administration at mealtime versus in the fasted state for each of the three studies. […] In each clinical study, the ASBTI was administered in both a fed and fasted state, and rates of GI AEs were compared.
# [2] = Phase 1 clinical study, incidence of GI TEAEs after Maralixibat 30 mg in fed versus fasted state; format: in vivo, human; conditions: healthy participants
# Description: as §1
# [3] = test system: fecal bile acid (fBA) excretion; assay: Effect of maralixibat on fecal bile acid (fBA) excretion in healthy dogs, dosing time relative to mealtime; format: in vivo; conditions: for increase in fBA excretion, change compared with pre-treatment value: day 7
# Description: FIG. 4 is a bar graph of the effect of maralixibat (MRX) on fecal bile acid (fBA) in dogs: change in fBA excretion from pre-treatment to day 7. The PD impact of ASBTI dosing time to mealtime was investigated in healthy dogs (FIG. 3). […] P<0.01 versus pre-treatment, by one-tail paired t-test. Data are presented as ±SEM (n = 7-8). % = change compared with pre-treatment value. Groups were dosed at the indicated times. Fecal samples were taken 48 hours before treatment initiation and for the last 72 hours of the 7-day treatment period and analyzed for bile acid content.
# [4] = Placebo-controlled trials in patients with ALGS, MRX dosed 30 mins prior to a meal, GI AE rates; format: in vivo, human; conditions: PBO-controlled trials, dosed in the fasted state 30 mins prior to a meal (PBO 44.4%)
# Description: (§2) AE data from 3 separate phase 1 clinical studies on MRX and VLX in healthy participants were compiled to assess the impact of ASBTI dosing vs mealtime on GI AEs (Table 1, FIG. 1). In each clinical study, the ASBTI was administered in both a fed and fasted state, and rates of GI AEs were compared. Separately, AE data from placebo (PBO)-controlled trials in patients with ALGS, where MRX was dosed 30 mins prior to a meal, allows a comparison of GI AE rates for MRX vs PBO.
# [5] = Phase 1 clinical study, incidence of GI TEAEs after Volixibat 75 mg in fed versus fasted state; format: in vivo, human; conditions: healthy participants
# Description: FIG. 1 depicts study designs, drugs (MRX = maralixibat, VLX = volixibat), doses and at mealtime/fasted timelines for certain embodiments according to the disclosure. *Fasting was started ≥10-12 hours before MRX dosing. ^‡Patients were randomized 1:1 to two cohorts and received sequentially fasted then at mealtime dosing, or at mealtime then fasted dosing.
# FIG. 2 is pie charts showing the proportion of healthy participants who experienced gastrointestinal (GI) treatment-emergent adverse events (AEs) following ASBTI administration at mealtime versus in the fasted state for each of the three studies.
# as §2
smiles,measurement,setting,value
"CCCCC1(CCCC)CS(=O)(=O)c2ccc(N(C)C)cc2[C@@H](c2ccc(OCc3ccc(C[N+]45CCN(CC4)CC5)cc3)cc2)[C@H]1O [Maralixibat, maralixibat]","Incidence of GI TEAEs: Any GI TEAE, % of participants",[1]; Fasted (n=6),0 (0%)
same,"Incidence of GI TEAEs: Any GI TEAE, number of participants",[1]; Fasted (n=6),0 (0%)
same,"Incidence of GI TEAEs: Any GI TEAE, % of participants",[1]; Fed (n=6),33%
same,"Incidence of GI TEAEs: Any GI TEAE, number of participants",[1]; Fed (n=6),2
same,"Incidence of GI TEAEs: Diarrhea, % of participants",[1]; Fed (n=6),17%
same,"Incidence of GI TEAEs: Diarrhea, number of participants",[1]; Fed (n=6),1
same,"Incidence of GI TEAEs: Nausea, % of participants",[1]; Fed (n=6),17%
same,"Incidence of GI TEAEs: Nausea, number of participants",[1]; Fed (n=6),1
same,"Incidence of GI TEAEs: Abdominal pain, % of participants",[2]; Fasted (n=12),8%
same,"Incidence of GI TEAEs: Abdominal pain, number of participants",[2]; Fasted (n=12),1
same,"Incidence of GI TEAEs: Any GI TEAE, % of participants",[2]; Fasted (n=12),50%
same,"Incidence of GI TEAEs: Any GI TEAE, number of participants",[2]; Fasted (n=12),6
same,"Incidence of GI TEAEs: Diarrhea, % of participants",[2]; Fasted (n=12),50%
same,"Incidence of GI TEAEs: Diarrhea, number of participants",[2]; Fasted (n=12),6
same,"Incidence of GI TEAEs: Abdominal pain, % of participants",[2]; Fed (n=12),42%
same,"Incidence of GI TEAEs: Abdominal pain, number of participants",[2]; Fed (n=12),5
same,"Incidence of GI TEAEs: Anorectal discomfort, % of participants",[2]; Fed (n=12),8%
same,"Incidence of GI TEAEs: Anorectal discomfort, number of participants",[2]; Fed (n=12),1
same,"Incidence of GI TEAEs: Any GI TEAE, % of participants",[2]; Fed (n=12),100%
same,"Incidence of GI TEAEs: Any GI TEAE, number of participants",[2]; Fed (n=12),12
same,"Incidence of GI TEAEs: Diarrhea, % of participants",[2]; Fed (n=12),92%
same,"Incidence of GI TEAEs: Diarrhea, number of participants",[2]; Fed (n=12),11
same,"Incidence of GI TEAEs: Nausea, % of participants",[2]; Fed (n=12),25%
same,"Incidence of GI TEAEs: Nausea, number of participants",[2]; Fed (n=12),3
same,"increase in fBA excretion, change compared with pre-treatment value",[3]; dosing 30 minutes prior to the meal,231%
same,"increase in fBA excretion, change compared with pre-treatment value",[3]; dosing 4 hours after the meal,229%
same,fBA excretion vs pretreatment baseline,"[3]; regardless of dosing time relative to the daily meal, p<0.01 by paired t-test",significantly increased fBA excretion
same,"diarrhea reported, frequency in patients",[4],43.6%
"CCCC[C@]1(CC)CS(=O)(=O)c2ccc(N(C)C)cc2[C@@H](c2cccc(NC(=O)N[C@@H]3O[C@H](COS(=O)(=O)O)[C@@H](O)[C@H](OCc4ccccc4)[C@H]3O)c2)[C@H]1O [Volixibat, (2R,3R,4S,5R,6R)-4-benzyloxy-6-{3-[3-((3S,4R,5R)-3-butyl-7-dimethylamino-3-ethyl-4-hydroxy-1,1-dioxo-2,3,4,5-tetrahydro-1H-benzo[b]thiepin-5-yl)-phenyl]-ureido}-3,5-dihydroxy-tetrahydro-pyran-2-ylmethyl) hydrogen sulfate]","Incidence of GI TEAEs: Any GI TEAE, % of participants",[5]; Fasted (n=8),0 (0%)
same,"Incidence of GI TEAEs: Any GI TEAE, number of participants",[5]; Fasted (n=8),0 (0%)
same,"Incidence of GI TEAEs: Any GI TEAE, % of participants",[5]; Fed (n=8),75%
same,"Incidence of GI TEAEs: Any GI TEAE, number of participants",[5]; Fed (n=8),6
same,"Incidence of GI TEAEs: Diarrhea, % of participants",[5]; Fed (n=8),50%
same,"Incidence of GI TEAEs: Diarrhea, number of participants",[5]; Fed (n=8),4
same,"Incidence of GI TEAEs: Loose stools, % of participants",[5]; Fed (n=8),25%
same,"Incidence of GI TEAEs: Loose stools, number of participants",[5]; Fed (n=8),2

# From patent US20230138455A1, “METHODS OF DOSING OF APICAL SODIUM-DEPENDENT BILE ACID TRANSPORTER INHIBITORS (ASBTIs)” (Mirum Pharmaceuticals, Inc., priority 2021, published 2023)
